The record followed here is US12552804B2, “Tricyclic heterocycles as FGFR inhibitors” (Incyte Corporation, priority 2019, dated 2026).

Sequence of wild-type un-phosphorylated FGFR3 protein (P22607 23-806): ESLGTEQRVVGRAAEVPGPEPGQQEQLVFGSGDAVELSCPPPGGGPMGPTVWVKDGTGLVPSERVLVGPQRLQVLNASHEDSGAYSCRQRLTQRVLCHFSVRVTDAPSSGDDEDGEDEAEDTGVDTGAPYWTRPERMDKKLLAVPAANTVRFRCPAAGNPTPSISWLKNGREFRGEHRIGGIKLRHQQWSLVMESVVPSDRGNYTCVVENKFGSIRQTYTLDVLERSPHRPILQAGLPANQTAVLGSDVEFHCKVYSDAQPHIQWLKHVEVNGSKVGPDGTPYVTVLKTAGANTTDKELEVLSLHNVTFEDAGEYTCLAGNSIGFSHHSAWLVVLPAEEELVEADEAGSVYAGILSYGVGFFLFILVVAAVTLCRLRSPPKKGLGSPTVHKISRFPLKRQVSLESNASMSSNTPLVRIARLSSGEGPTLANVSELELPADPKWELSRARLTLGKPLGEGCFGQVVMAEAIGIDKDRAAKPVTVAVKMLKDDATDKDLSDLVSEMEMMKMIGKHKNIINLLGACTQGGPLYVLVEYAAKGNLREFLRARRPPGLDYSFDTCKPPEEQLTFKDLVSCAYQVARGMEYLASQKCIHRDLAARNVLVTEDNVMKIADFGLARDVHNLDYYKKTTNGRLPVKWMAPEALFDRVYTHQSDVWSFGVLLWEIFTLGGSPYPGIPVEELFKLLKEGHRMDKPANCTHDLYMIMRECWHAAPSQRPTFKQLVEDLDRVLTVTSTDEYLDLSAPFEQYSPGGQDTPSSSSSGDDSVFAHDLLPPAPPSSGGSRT

The assay concerns the target wild-type un-phosphorylated FGFR3 protein (Homo sapiens, UniProt P22607). Kind of assay: FGFR Enzymatic Assay (FRET detection of peptide phosphorylation). The assay is classed as biochemical. The note with it: pre-incubated for 4 hours, read-out: FGFR3_Ki. As to the method: The inhibitor potency of the exemplified compounds was determined in an enzyme discontinuous assay that measures peptide phosphorylation using FRET measurements to detect product formation. Inhibitors were serially diluted in DMSO and a volume of 0.2 μL was transferred to the wells of a 384-well plate. A 5 μL/well volume of enzyme isoforms of FGFR (−1, −2, −3 wild-type and mutant isoforms, −4) including phosphorylated and un-phosphorylated proteins diluted in assay buffer (50 mM HEPES, 10 mM MgCl2, 1 mM EGTA, 0.01% Tween-20, 5 mM DTT, pH 7.5) was added to the plate and pre-incubated with inhibitor for 5 to 15 minutes at ambient temperature. Appropriate controls (enzyme blank and enzyme with no inhibitor) were included on the plate. […] The ATP Km values were pre-determined in a separate series of experiments. The reaction plate was incubated at 25° C. for 1 hr and the reactions were ended with the addition of 5 μL/well of quench solution (50 mM Tris, 150 mM NaCl, 0.5 mg/mL BSA, pH 7.8; 45 mM EDTA, 600 nM staurosporin, with Perkin Elmer Lance Reagents at 3.75 nM Eu-antibody PY20 and 180 nM APC-Streptavidin). The plate was allowed to equilibrate for ˜10 minutes at ambient temperature before scanning on a PheraStar plate reader (BMG Labtech) instrument.
Either GraphPad prism or XLfit was used to analyze the data. The IC50 values were derived by fitting the data to a four parameter logistic equation producing a sigmoidal dose-response curve with a variable Hill coefficient. Prism equation: Y=Bottom+(Top−Bottom)/(1+10^((LogIC50−X)*Hill slope)); XLfit equation: Y=(A+((B−A)/(1+((X/C)^D)))) where X is the logarithm of inhibitor concentration and Y is the response.
The data in Table 1 was measured in wild-type un-phosphorylated FGFR3 protein.
Regarding `Cc1c(-c2c(Cl)cccc2Cl)nc2c3cc(-c4cnn(C)c4)c(O)nc3ccn12` [Example 31, 2-(2,6-Dichlorophenyl)-3-methyl-9-(1-methyl-1H-pyrazol-4-yl)imidazo[2,1-f][1,6]naphthyridin-8-ol], the Ki lay in the range of 0.01 to 0.1 µM. In the case of `Cc1c(-c2c(Cl)cccc2Cl)nc2c3c(O[C@H]4CCOC4)c(-c4cnn(C)c4)cnc3ccn12` [Example 32, (S)-2-(2,6-Dichlorophenyl)-3-methyl-9-(1-methyl-1H-pyrazol-4-yl)-10-((tetrahydrofuran-3-yl)oxy)imidazo[2,1-f][1,6]naphthyridine], the Ki is 0.1 to 0.4 µM. Under `Cc1c(-c2c(Cl)cccc2Cl)nc2c3cc(-c4cnn(C)c4)c(N(C)C)nc3ccn12` [Example 33, 2-(2,6-Dichlorophenyl)-N,N,3-trimethyl-9-(1-methyl-1H-pyrazol-4-yl)imidazo[2,1-f][1,6]naphthyridin-8-amine] stands 0.01 to 0.1 µM. Under `C=CC(=O)Nc1ccc(Cl)c(-c2nc3c4cc(-c5cnn(C)c5)cnc4ccn3c2C)c1Cl` [Example 34, N-(2,4-Dichloro-3-(3-methyl-9-(1-methyl-1H-pyrazol-4-yl)imidazo[2,1-f][1,6]naphthyridin-2-yl)phenyl)acrylamide] stands < 0.01 µM; under `C=CC(=O)Nc1cccc(-c2nc3c4cc(-c5cnn(C)c5)cnc4ccn3c2C)c1` [Example 35, N-(3-(3-Methyl-9-(1-methyl-1H-pyrazol-4-yl)imidazo[2,1-f][1,6]naphthyridin-2-yl)phenyl)acrylamide], 0.01 to 0.1 µM; under `C=CC(=O)Nc1ccccc1-c1nc2c3cc(-c4cnn(C)c4)cnc3ccn2c1C` [Example 36, N-(2-(3-Methyl-9-(1-methyl-1H-pyrazol-4-yl)imidazo[2,1-f][1,6]naphthyridin-2-yl)phenyl)acrylamide], 0.1 to 0.4 µM. The result for `Cc1c(-c2c(Cl)cccc2Cl)nc2c3cc(-c4cnn(C5CN(C(=O)C6(N)CC6)C5)c4)cnc3ccn12` [Example 37, (1-Aminocyclopropyl)(3-(4-(2-(2,6-dichlorophenyl)-3-methylimidazo[2,1-f][1,6]naphthyridin-9-yl)-1H-pyrazol-1-yl)azetidin-1-yl)methanone] reads < 0.01 µM; that for `Cc1c(-c2c(Cl)cccc2Cl)nc2c3cc(-c4cnn(C5CN(C(=O)Cn6ccnc6)C5)c4)cnc3ccn12` [Example 38, 1-(3-(4-(2-(2,6-Dichlorophenyl)-3-methylimidazo[2,1-f][1,6]naphthyridin-9-yl)-1H-pyrazol-1-yl)azetidin-1-yl)-2-(1H-imidazol-1-yl)ethan-1-one], < 0.01 µM; that for `Cc1c(-c2c(Cl)cccc2Cl)nc2c3cc(-c4cnn(C5CN(C(=O)c6cocn6)C5)c4)cnc3ccn12` [Example 39, (3-(4-(2-(2,6-Dichlorophenyl)-3-methylimidazo[2,1-f][1,6]naphthyridin-9-yl)-1H-pyrazol-1-yl)azetidin-1-yl)(oxazol-4-yl)methanone], < 0.01 µM.

`Cc1c(-c2c(Cl)cccc2Cl)nc2c3cc(-c4cnn(C5CN(C(=O)C6(N)CCOCC6)C5)c4)cnc3ccn12` [Example 40, (4-Aminotetrahydro-2H-pyran-4-yl)(3-(4-(2-(2,6-dichlorophenyl)-3-methylimidazo[2,1-f][1,6]naphthyridin-9-yl)-1H-pyrazol-1-yl)azetidin-1-yl)methanone]: the Ki was < 0.01 µM. Take `Cc1c(-c2c(Cl)cccc2Cl)nc2c3cc(-c4cnn(C5CN(C(=O)CC#N)C5)c4)cnc3ccn12` [Example 41, 3-(3-(4-(2-(2,6-Dichlorophenyl)-3-methylimidazo[2,1-f][1,6]naphthyridin-9-yl)-1H-pyrazol-1-yl)azetidin-1-yl)-3-oxopropanenitrile]: the Ki is < 0.01 µM.

As for `O=C(O)c1ccc(Cn2cc(-c3cnc4ccn5cc(-c6c(Cl)cccc6Cl)nc5c4c3)cn2)cc1F` [Example 42, 4-((4-(2-(2,6-Dichlorophenyl)imidazo[2,1-f][1,6]naphthyridin-9-yl)-1H-pyrazol-1-yl)methyl)-2-fluorobenzoic acid], the Ki was < 0.01 µM.

Consider `CN(C)C(=O)c1ccc(-n2cc(-c3cnc4ccn5cc(-c6c(Cl)cccc6Cl)nc5c4c3)cn2)cc1` [Example 43, 4-(4-(2-(2,6-Dichlorophenyl)imidazo[2,1-f][1,6]naphthyridin-9-yl)-1H-pyrazol-1-yl)-N,N-dimethylbenzamide], for which the Ki lay within 0.01 to 0.1 µM. The result for `COCC(=O)N[C@H]1CC[C@H](n2cc(-c3cnc4ccn5cc(-c6c(Cl)cccc6Cl)nc5c4c3)cn2)CC1` [Example 44, N-((1r,4r)-4-(4-(2-(2,6-Dichlorophenyl)imidazo[2,1-f][1,6]naphthyridin-9-yl)-1H-pyrazol-1-yl)cyclohexyl)-2-methoxyacetamide] reads < 0.01 µM. As to `CN(C)C(=O)N[C@H]1CC[C@H](n2cc(-c3cnc4ccn5cc(-c6c(Cl)cccc6Cl)nc5c4c3)cn2)CC1` [Example 45, 3-((1r,4r)-4-(4-(2-(2,6-Dichlorophenyl)imidazo[2,1-f][1,6]naphthyridin-9-yl)-1H-pyrazol-1-yl)cyclohexyl)-1,1-dimethylurea], the Ki is < 0.01 µM.

Consider `CC(=O)N1CC2(CCC(n3cc(-c4cnc5ccn6cc(-c7c(Cl)cccc7Cl)nc6c5c4)cn3)CC2)C1` [Example 46, 1-(7-(4-(2-(2,6-Dichlorophenyl)imidazo[2,1-f][1,6]naphthyridin-9-yl)-1H-pyrazol-1-yl)-2-azaspiro[3.5]nonan-2-yl)ethan-1-one], for which the Ki was < 0.01 µM. The result for `Cc1c(-c2c(Cl)cccc2Cl)nc2c3cc(-c4cnn(C5CCOCC5)c4)cnc3ccn12` [Example 47, 2-(2,6-Dichlorophenyl)-3-methyl-9-(1-(tetrahydro-2H-pyran-4-yl)-1H-pyrazol-4-yl)imidazo[2,1-f][1,6]naphthyridine] reads < 0.01 µM.

On to `Cc1c(-c2c(Cl)cccc2Cl)nc2c3cc(-c4cnn([C@H]5CC[C@H](O)CC5)c4)cnc3ccn12` [Example 48, (1r,4r)-4-(4-(2-(2,6-Dichlorophenyl)-3-methylimidazo[2,1-f][1,6]naphthyridin-9-yl)-1H-pyrazol-1-yl)cyclohexan-1-ol], for which the Ki was < 0.01 µM. The result for `Cc1c(-c2c(Cl)cccc2Cl)nc2c3cc(-c4cnn(C5CCC(C)(C(=O)O)CC5)c4)cnc3ccn12` (centres unmarked) [Example 49, 4-(4-(2-(2,6-Dichlorophenyl)-3-methylimidazo[2,1-f][1,6]naphthyridin-9-yl)-1H-pyrazol-1-yl)-1-methylcyclohexane-1-carboxylic acid] reads < 0.01 µM; that for `CN(C)C(=O)N1CCC(n2cc(-c3cnc4ccn5cc(-c6c(Cl)cccc6Cl)nc5c4c3)cn2)C1` (centres unmarked) [Example 50, 3-(4-(2-(2,6-Dichlorophenyl)imidazo[2,1-f][1,6]naphthyridin-9-yl)-1H-pyrazol-1-yl)-N,N-dimethylpyrrolidine-1-carboxamide], < 0.01 µM; that for `CN(C)S(=O)(=O)N1CCC(n2cc(-c3cnc4ccn5cc(-c6c(Cl)cccc6Cl)nc5c4c3)cn2)C1` (centres unmarked) [Example 51, 3-(4-(2-(2,6-Dichlorophenyl)imidazo[2,1-f][1,6]naphthyridin-9-yl)-1H-pyrazol-1-yl)-N,N-dimethylpyrrolidine-1-sulfonamide], < 0.01 µM.

Regarding `CC(=O)N1CC[C@H](n2cc(-c3cnc4ccn5c(C)c(-c6c(Cl)cccc6Cl)nc5c4c3)cn2)C1` [Example 52, (S)-1-(3-(4-(2-(2,6-Dichlorophenyl)-3-methylimidazo[2,1-f][1,6]naphthyridin-9-yl)-1H-pyrazol-1-yl)pyrrolidin-1-yl)ethan-1-one], the Ki was < 0.01 µM.

For the compound `Cc1c(-c2c(Cl)cccc2Cl)nc2c3cc(-c4cnn([C@H]5CCN(C(=O)CO)C5)c4)cnc3ccn12` [Example 53, (S)-1-(3-(4-(2-(2,6-Dichlorophenyl)-3-methylimidazo[2,1-f][1,6]naphthyridin-9-yl)-1H-pyrazol-1-yl)pyrrolidin-1-yl)-2-hydroxyethan-1-one], the Ki is < 0.01 µM.

As for `Cc1c(-c2c(Cl)cccc2Cl)nc2c3cc(-c4cnn(C56CC5CN(C(=O)CO)C6)c4)cnc3ccn12` (centres unmarked) [Example 54, 1-(1-(4-(2-(2,6-Dichlorophenyl)-3-methylimidazo[2,1-f][1,6]naphthyridin-9-yl)-1H-pyrazol-1-yl)-3-azabicyclo[3.1.0]hexan-3-yl)-2-hydroxyethan-1-one], the Ki was < 0.01 µM. For `O=C(CO)N1CC[C@H](n2cc(-c3cnc4ccn5c(CO)c(-c6c(Cl)cccc6Cl)nc5c4c3)cn2)C1` [Example 55, (S)-1-(3-(4-(2-(2,6-Dichlorophenyl)-3-(hydroxymethyl)imidazo[2,1-f][1,6]naphthyridin-9-yl)-1H-pyrazol-1-yl)pyrrolidin-1-yl)-2-hydroxyethan-1-one], the Ki was < 0.01 µM.

`CC(=O)N1CC[C@H](n2cc(-c3cnc4ccn5c(CO)c(-c6c(Cl)cccc6Cl)nc5c4c3)cn2)C1` [Example 56, (S)-1-(3-(4-(2-(2,6-Dichlorophenyl)-3-(hydroxymethyl)imidazo[2,1-f][1,6]naphthyridin-9-yl)-1H-pyrazol-1-yl)pyrrolidin-1-yl)ethan-1-one]: the Ki was < 0.01 µM.
